Data: ChEMBL document CHEMBL5620416, “Design, synthesis and development of a dual inhibitor of Topoisomerase 1 and poly (ADP-ribose) polymerase 1 for efficient killing of cancer cells” (Eur J Med Chem, 2023)
Active and inactive are the calls of the source. No cut-off for these calls is given here.

How the values were obtained:
[1] = test system: DNA topoisomerase 1/Deoxyribonucleic acid (Homo sapiens); experiment: Induction of TOP1-DNA covalent complex stabilization in human HCT-116 cells at 10 to 20 uM after 4 to 6 hrs by RADAR assay; type: cell-based; settings: dose 10-20 µM, time 4-6 hrs
HCT-116 [2] = experiment: Induction of cell cycle arrest in human HCT-116 cells assessed as accumulation of cells at Sub-G1 phase at 10 uM incubated for 48 hrs by PI staining based flow cytometry analysis (reference value: 2.7 +/- 0.4%); type: functional
[3] = test system: DNA topoisomerase 1/Deoxyribonucleic acid (Homo sapiens); experiment: Induction of TOP1-DNA covalent complex stabilization in human HCT-116 cells after 2 to 6 hrs by RADAR assay; type: cell-based; settings: dose 10-20 µM, time 2-6 hrs
HCT-116 [4] = experiment: Induction of cell cycle arrest in human HCT-116 cells incubated for 24 to 48 hrs by PI staining based flow cytometry analysis; type: functional; settings: dose 5-20 µM, time 24-48 hrs
[5] = test system: DNA topoisomerase 1/Deoxyribonucleic acid (Homo sapiens); experiment: Induction of TOP1-DNA covalent complex stabilization in human HCT-116 cells after 2 to 8 hrs by immunofluorescence microscopic assay; type: cell-based; settings: dose 20.0 µM, time 2-8 hrs
HCT-116 [6] = experiment: Induction of cell cycle arrest in human HCT-116 cells assessed as accumulation of cells at Sub-G1 phase at 20 uM incubated for 24 hrs by PI staining based flow cytometry analysis (reference value: 1.1 +/- 0.1%); type: functional
HCT-116 [7] = experiment: Induction of cell cycle arrest in human HCT-116 cells assessed as accumulation of cells at S phase at 10 uM incubated for 48 hrs by PI staining based flow cytometry analysis (reference value: 17%); type: functional
Calf thymus DNA = experiment: Displacement of EtBr from calf thymus pUC19 DNA preincubated with EtBr for 15 mins followed by compound addition and measured after 30 mins by […] staining based fluorescence assay; type: nucleic-acid assay; settings: Bos taurus, dose 100-300 µM
HCT-116 [8] = experiment: Induction of cell cycle arrest in human HCT-116 cells assessed as accumulation of cells at G2 phase at 10 uM incubated for 48 hrs by PI staining based flow cytometry analysis (reference value: 26%); type: functional
[9] = Stability in human plasma incubated for 2 hrs by HPLC analysis; type: ADME, cell-free; settings: read-out: Stability
[10] = target: Poly [ADP-ribose] polymerase 1 (Homo sapiens) (UniProt P09874); experiment: Inhibition of recombinant human PARP1 at 30 uM incubated for 10 mins relative to control
Sequence of Poly [ADP-ribose] polymerase 1 (Homo sapiens) (P09874 whole entry): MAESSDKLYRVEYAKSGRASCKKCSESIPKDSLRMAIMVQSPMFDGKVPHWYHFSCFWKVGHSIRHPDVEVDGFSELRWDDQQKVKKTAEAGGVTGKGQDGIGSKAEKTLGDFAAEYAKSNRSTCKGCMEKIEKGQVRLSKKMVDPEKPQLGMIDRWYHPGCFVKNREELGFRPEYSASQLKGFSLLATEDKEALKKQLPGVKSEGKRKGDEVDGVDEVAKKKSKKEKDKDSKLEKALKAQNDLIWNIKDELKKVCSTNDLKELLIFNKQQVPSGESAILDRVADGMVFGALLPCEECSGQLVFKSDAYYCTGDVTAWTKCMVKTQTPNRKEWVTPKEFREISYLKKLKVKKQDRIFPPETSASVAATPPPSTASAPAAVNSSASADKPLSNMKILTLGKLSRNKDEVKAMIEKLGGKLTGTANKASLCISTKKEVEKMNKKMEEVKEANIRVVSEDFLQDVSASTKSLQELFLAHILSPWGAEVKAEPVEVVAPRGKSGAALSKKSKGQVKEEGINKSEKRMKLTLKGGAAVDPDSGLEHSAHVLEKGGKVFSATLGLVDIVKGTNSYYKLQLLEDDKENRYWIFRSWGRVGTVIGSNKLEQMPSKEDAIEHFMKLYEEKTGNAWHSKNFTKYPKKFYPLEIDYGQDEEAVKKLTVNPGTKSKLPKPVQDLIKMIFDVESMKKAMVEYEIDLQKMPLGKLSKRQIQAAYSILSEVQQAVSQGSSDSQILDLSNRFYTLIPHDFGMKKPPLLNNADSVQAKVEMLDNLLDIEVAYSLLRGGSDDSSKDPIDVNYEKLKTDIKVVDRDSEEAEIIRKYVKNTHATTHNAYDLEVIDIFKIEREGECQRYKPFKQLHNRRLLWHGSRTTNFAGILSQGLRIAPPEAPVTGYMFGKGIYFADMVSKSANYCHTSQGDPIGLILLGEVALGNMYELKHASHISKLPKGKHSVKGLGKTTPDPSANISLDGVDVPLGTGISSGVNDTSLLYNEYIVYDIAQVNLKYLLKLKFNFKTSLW

HCT-116 [11] = experiment: Induction of cell cycle arrest in human HCT-116 cells assessed as accumulation of cells at Sub-G1 phase at 5 uM incubated for 48 hrs by PI staining based flow cytometry analysis (reference value: 2.7 +/- 0.4%); type: functional
[12] = test system: DNA topoisomerase 1/Deoxyribonucleic acid (Homo sapiens); experiment: Induction of TOP1-DNA covalent complex stabilization in human HCT-116 cells at 10 to 20 uM by RADAR assay; type: cell-based; settings: dose 10-20 µM, time 2-6 hrs, TDE = time-dependent effect

With `O=C1c2cccc3cccc(c23)C(=O)N1CCSc1nnc(Cn2nc(Cc3ccc(F)cc3)c3ccccc3c2=O)o1` the Activity [1] was “Active”, the Activity (HCT-116 [2]) was 44.2% and the Activity [3] was “Dose-Dependent Effect”. For the same compound, the Activity (HCT-116 [4]) was “Dose-Dependent Effect”, the Activity [5] was “Dose-Dependent Effect” and the Activity (HCT-116 [6]) was 39.1%. For the same compound, the Activity (HCT-116 [7]) was 33%, the Activity (Calf thymus DNA) was “Dose-Dependent Effect” and the Activity (HCT-116 [8]) was 32%. It also gave a remaining at 2 h [9] of over 70%, an inhibition [10] of 35% and an Activity (HCT-116 [11]) of 35%. The Activity [12] was “Tde”.
